The source of these data is PMC8040053 (ACS Medicinal Chemistry Letters, 2021).

Structures are written as SMILES.

In experiment [1] the target is T1, HDAC3 (Homo sapiens, UniProt O15379). Nature of the experiment: HDAC3 inhibition assay. It is filed as biochemical. As to conditions: for HDAC3 LBE: HDAC3-derived ligand binding efficiency.
Experiment [2] has as its target T1, HDAC3. Briefly: HDAC3 progress curve analysis / jump dilution. It is filed as biochemical. To be noted: HDAC3, linear progress curves.
Experiment [3] in a line: Lead profiling panel of 115 biochemical and binding assays at Eurofins Panlabs. To be noted: 115-assay panel.

T1 sequence (O15379 whole entry): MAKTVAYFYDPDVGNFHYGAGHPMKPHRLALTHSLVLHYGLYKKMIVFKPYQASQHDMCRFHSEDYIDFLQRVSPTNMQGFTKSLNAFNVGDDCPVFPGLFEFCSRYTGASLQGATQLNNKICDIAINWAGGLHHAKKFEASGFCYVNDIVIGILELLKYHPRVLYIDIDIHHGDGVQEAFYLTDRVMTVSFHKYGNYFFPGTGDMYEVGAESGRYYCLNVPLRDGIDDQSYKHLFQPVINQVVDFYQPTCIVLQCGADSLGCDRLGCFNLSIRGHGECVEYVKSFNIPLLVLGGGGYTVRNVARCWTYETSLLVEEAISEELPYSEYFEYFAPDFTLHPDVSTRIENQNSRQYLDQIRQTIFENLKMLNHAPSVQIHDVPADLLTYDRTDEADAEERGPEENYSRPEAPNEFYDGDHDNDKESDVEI
T1 sequence (Q9Y618 1-899 partner limits assumed): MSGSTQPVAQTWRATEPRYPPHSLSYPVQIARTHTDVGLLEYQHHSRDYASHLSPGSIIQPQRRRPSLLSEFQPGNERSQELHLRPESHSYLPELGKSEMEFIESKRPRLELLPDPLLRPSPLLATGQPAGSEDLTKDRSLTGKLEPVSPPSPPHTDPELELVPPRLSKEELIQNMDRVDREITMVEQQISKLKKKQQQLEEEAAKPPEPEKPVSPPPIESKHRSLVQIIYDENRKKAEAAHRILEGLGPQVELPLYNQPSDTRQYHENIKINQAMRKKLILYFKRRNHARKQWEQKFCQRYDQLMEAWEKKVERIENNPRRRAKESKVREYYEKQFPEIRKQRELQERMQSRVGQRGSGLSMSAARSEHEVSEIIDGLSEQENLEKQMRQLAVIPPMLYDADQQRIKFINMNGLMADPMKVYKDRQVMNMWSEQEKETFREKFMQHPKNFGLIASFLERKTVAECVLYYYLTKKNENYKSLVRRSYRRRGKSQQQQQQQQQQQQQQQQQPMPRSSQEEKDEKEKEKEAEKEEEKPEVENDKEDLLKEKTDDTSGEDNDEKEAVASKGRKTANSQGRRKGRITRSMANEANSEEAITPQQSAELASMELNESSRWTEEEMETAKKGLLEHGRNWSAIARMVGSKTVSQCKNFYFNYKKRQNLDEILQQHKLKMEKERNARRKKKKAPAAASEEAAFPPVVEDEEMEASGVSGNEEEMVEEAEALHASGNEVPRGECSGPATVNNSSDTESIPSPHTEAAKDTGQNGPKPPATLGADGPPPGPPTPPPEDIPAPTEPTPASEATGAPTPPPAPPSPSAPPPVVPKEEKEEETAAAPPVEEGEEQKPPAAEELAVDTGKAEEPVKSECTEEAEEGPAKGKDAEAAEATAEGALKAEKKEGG

Turning to `CCCC[C@H](NC(=O)[C@H](C)c1c(C)[nH]c2ccc(OC)cc12)c1ncc(-c2cc3ccccc3nc2OC)[nH]1` [Compound 20], on HDAC3 [1], the “HDAC3 LBE” value was 0.25.
For `CCCC[C@H](NC(=O)C1CN(C)C1)c1ncc(-c2cc3ccccc3nc2OC)[nH]1` [Compound 12], on HDAC3 [2], the inhibition kinetics mechanism entry is “fast-on/fast-off kinetics”.
For the compound `CCCC[C@H](NC(=O)[C@H](CN)c1c(C)[nH]c2ccc(OC)cc12)c1ncc(-c2cc3ccccc3nc2OC)[nH]1` [Compound 21], on HDAC3 [1] (read-out: HDAC3 IC50, Table 3), the IC50 was determined as 18 nM.
Regarding `CCCC[C@H](NC(=O)[C@H](C)c1c(C)[nH]c2ccc(O)cc12)c1ncc(-c2cc3ccccc3nc2OC)[nH]1` [Compound 19], the “selectivity for HDAC inhibition over off-target hits” value in experiment [3] was 10–1000 fold. In addition, the inhibition kinetics mechanism entry against HDAC3 [2] is listed as “fast-on/fast-off kinetics”. Moreover, at HDAC3 [1], the “HDAC3 LBE” value is listed as 0.25.

One may read the IC50 as the concentration that gives 50% inhibition.
